Converted amounts (≈) assume the structure as drawn. Where two headings read alike, the source gives them in different places.
Legend:
Type in all cases: cell-based
[1] = system: Fusarium moniliforme (Fm); assay: In vitro pathogen growth inhibition assay, Fm; conditions: Fusarium verticillioides
Outline: (§1)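 Spores in 17% V8 liquid medium, or 1.5 mm Rs mycelial plugs in ¼ PDB, incubated with compound; final concentration checked by OD600 for precipitation. OD readings at 24 and 48 h, blank-subtracted, plus visual ratings; value is concentration giving ≥90% growth inhibition.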

[2] = system: Botrtyis cinerea (Bc); assay: In vitro pathogen growth inhibition assay, Bc; conditions: 48 h
Outline: as §1

[3] = system: Fusarium virguliforme (Fv); assay: In vitro pathogen growth inhibition assay, Fv
Outline: (§2)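 Spores of Dm, Fv and Pc were diluted in 17% V8 liquid medium; Rs used 1.5 mm mycelial plugs in ¼ PDB. Compounds from 2.5 mg/ml DMSO stocks were combined with inoculum, growth was read by OD600 at 24 and 48 h with blank subtraction, and the reported value is the concentration giving ≥90% inhibition.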

[4] = system: Diplodia maydis (Dm); assay: In vitro pathogen growth inhibition assay, Dm; conditions: Stenocarpella maydis, 48 h
Outline: as §2

[5] = system: Phytophthora capsici (Pc); assay: In vitro pathogen growth inhibition assay, Pc; conditions: 48 h
Outline: as §2

[6] = system: Collectotrichum graminicola (Cg); assay: In vitro pathogen growth inhibition assay, Cg; conditions: 48 h
Outline: as §1

[7] = system: Septoria tritici (St); assay: In vitro pathogen growth inhibition assay, St; conditions: Zymoseptoria tritici, 48 h
Outline: as §1

[8] = system: Rhizoctonia solani (Rs); assay: In vitro pathogen growth inhibition assay, Rs (mycelial plugs); conditions: Rhizoctonia solani, 48 h
Outline: as §2

[9] = ≥90% inhibition, 48 hours vs 2% DMSO control, read-out: Compound Concentration (ppm) sufficient for ≥90% inhibition of growth, Fm
[10] = ≥90% inhibition, 48 hours vs 2% DMSO control, read-out: Compound Concentration (ppm) sufficient for ≥90% inhibition of growth, Bc
[11] = ≥90% inhibition, 48 hours vs 2% DMSO control, read-out: Compound Concentration (ppm) sufficient for ≥90% inhibition of growth, Fv
[12] = ≥90% inhibition, 48 hours vs 2% DMSO control, read-out: Compound Concentration (ppm) sufficient for ≥90% inhibition of growth, Dm
[13] = ≥90% inhibition, 48 hours vs 2% DMSO control, read-out: Compound Concentration (ppm) sufficient for ≥90% inhibition of growth, Pc
[14] = ≥90% inhibition, 48 hours vs 2% DMSO control, read-out: Compound Concentration (ppm) sufficient for ≥90% inhibition of growth, Cg
[15] = ≥90% inhibition, 48 hours vs 2% DMSO control, read-out: Compound Concentration (ppm) sufficient for ≥90% inhibition of growth, St
[16] = ≥90% inhibition, mycelial plugs, 48 hours vs 2% DMSO control, read-out: Compound Concentration (ppm) sufficient for ≥90% inhibition of growth, Rs
[17] = ≥90% growth inhibition, 48 hours, vs 2% DMSO control, read-out: Compound Concentration (ppm) sufficient for ≥90% inhibition of Fm
[18] = ≥90% growth inhibition, 48 hours, vs 2% DMSO control, read-out: Compound Concentration (ppm) sufficient for ≥90% inhibition of Bc
[19] = ≥90% growth inhibition, 48 hours, vs 2% DMSO control, read-out: Compound Concentration (ppm) sufficient for ≥90% inhibition of Fv
[20] = ≥90% growth inhibition, 48 hours, vs 2% DMSO control, read-out: Compound Concentration (ppm) sufficient for ≥90% inhibition of Dm
[21] = ≥90% growth inhibition, 48 hours, vs 2% DMSO control, read-out: Compound Concentration (ppm) sufficient for ≥90% inhibition of Pc
[22] = ≥90% growth inhibition, 48 hours, vs 2% DMSO control, read-out: Compound Concentration (ppm) sufficient for ≥90% inhibition of Cg
[23] = ≥90% growth inhibition, 48 hours, vs 2% DMSO control, read-out: Compound Concentration (ppm) sufficient for ≥90% inhibition of St
[24] = ≥90% growth inhibition, mycelial plugs, 48 hours, vs 2% DMSO control, read-out: Compound Concentration (ppm) sufficient for ≥90% inhibition of Rs

Compound | IC90 [1, 9] | IC90 [2, 10] | IC90 [3, 11] | IC90 [4, 12] | IC90 [5, 13] | IC90 [6, 14] | IC90 [7, 15] | IC90 [8, 16] | IC90 [1, 17] | IC90 [2, 18] | IC90 [3, 19] | IC90 [4, 20] | IC90 [5, 21] | IC90 [6, 22] | IC90 [7, 23] | IC90 [8, 24] | further results
COc1ccc(F)cc1[C@H](Cn1c(=O)n(C(C)(C)C(=O)NC(C)C)c(=O)c2c(C)c(-n3cccn3)sc21)O[C@H]1CC[C@@H](O)CC1 [Compound I-049] | 0.08 µg/mL (≈ 0.125 µM) | 0.4 µg/mL (≈ 0.623 µM) | 2 µg/mL (≈ 3.12 µM) | 2 µg/mL (≈ 3.12 µM) | > 50 µg/mL | 50 µg/mL (≈ 77.9 µM) | > 50 µg/mL | 2 µg/mL (≈ 3.12 µM) |  |  |  |  |  |  |  |  | 
CCOC(=O)c1sc2c(c1C)c(=O)n([C@H](C)C(=O)N1CCCC1)c(=O)n2C[C@H](OCCC#N)c1cc(F)ccc1OC [Compound I-226] |  |  |  |  |  |  |  |  | 0.08 µg/mL (≈ 0.133 µM) | 2 µg/mL (≈ 3.33 µM) | 2 µg/mL (≈ 3.33 µM) | ≥ 2 µg/mL | > 50 µg/mL | 2 µg/mL (≈ 3.33 µM) | > 50 µg/mL | 0.08 µg/mL (≈ 0.133 µM) | 
CNC(=O)C(C)(C)n1c(=O)c2c(C)c(-n3nccn3)sc2n(C[C@H](OCCC#N)c2ccccc2OC)c1=O [Compound I-209] |  |  |  |  |  |  |  |  | 0.08 µg/mL (≈ 0.145 µM) | 2 µg/mL (≈ 3.63 µM) | 10 µg/mL (≈ 18.1 µM) | ≥ 10 µg/mL | > 50 µg/mL | 50 µg/mL (≈ 90.6 µM) | > 50 µg/mL | 0.08 µg/mL (≈ 0.145 µM) | 
COc1ccc(F)cc1[C@H](Cn1c(=O)n(CC(=O)N2CCCC2)c(=O)c2c(C)c(-n3nccn3)sc21)OC(C)C [Compound I-059] | 0.08 µg/mL (≈ 0.14 µM) | 0.08 µg/mL (≈ 0.14 µM) | ≥ 0.08 µg/mL | 0.4 µg/mL (≈ 0.701 µM) | > 50 µg/mL | 0.4 µg/mL (≈ 0.701 µM) | 10 µg/mL (≈ 17.5 µM) | 0.4 µg/mL (≈ 0.701 µM) |  |  |  |  |  |  |  |  | 
COc1ccccc1[C@H](Cn1c(=O)n(C(C)(C)C(=O)N2CCCC2)c(=O)c2c(C)c(-n3cccn3)sc21)OC1CCOCC1 [Compound I-116] | 0.4 µg/mL (≈ 0.643 µM) | 10 µg/mL (≈ 16.1 µM) | 10 µg/mL (≈ 16.1 µM) | 10 µg/mL (≈ 16.1 µM) | > 50 µg/mL | ≥ 2 µg/mL | ≥ 50 µg/mL | 2 µg/mL (≈ 3.22 µM) |  |  |  |  |  |  |  |  | 
Cc1c(-n2nccn2)sc2c1c(=O)n(C(C)(C)C(=O)NC(C)C)c(=O)n2C[C@H](OCC(C)(C)O)c1cc(F)ccc1OCC#N [Compound I-278] |  |  |  |  |  |  |  |  | 0.4 µg/mL (≈ 0.623 µM) | 2 µg/mL (≈ 3.12 µM) | 2 µg/mL (≈ 3.12 µM) | 2 µg/mL (≈ 3.12 µM) | 10 µg/mL (≈ 15.6 µM) | 0.4 µg/mL (≈ 0.623 µM) | > 50 µg/mL | 0.4 µg/mL (≈ 0.623 µM) | 
COc1ccc(F)cc1[C@H](Cn1c(=O)n(C(C)(C)C(=O)NC2CCC2)c(=O)c2c(C)c(-n3nccn3)sc21)OC1CCOCC1 [Compound I-038] | 0.08 µg/mL (≈ 0.125 µM) | 0.4 µg/mL (≈ 0.624 µM) | 0.4 µg/mL (≈ 0.624 µM) | 0.4 µg/mL (≈ 0.624 µM) | 10 µg/mL (≈ 15.6 µM) | 0.4 µg/mL (≈ 0.624 µM) | ≥ 2 µg/mL | 0.08 µg/mL (≈ 0.125 µM) |  |  |  |  |  |  |  |  | 
COc1ccc(F)cc1[C@H](Cn1c(=O)n(C(C)(C)C(=O)N2CCCC2)c(=O)c2c(C)c(-n3cccn3)sc21)OC[C@H](C)O [Compound I-161] | 2 µg/mL (≈ 3.26 µM) | 10 µg/mL (≈ 16.3 µM) | 10 µg/mL (≈ 16.3 µM) | 50 µg/mL (≈ 81.5 µM) | > 50 µg/mL | 10 µg/mL (≈ 16.3 µM) | > 50 µg/mL | ≥ 2 µg/mL |  |  |  |  |  |  |  |  | 
CCNC(=O)[C@H](C)n1c(=O)c2c(C)c(-n3cccn3)sc2n(C[C@H](OCCC#N)c2cc(F)ccc2OC)c1=O [Compound I-306] |  |  |  |  |  |  |  |  |  |  |  |  |  |  |  |  | IC90 ([1]; concentration sufficient to ≥90% inhibition of growth, 48 hours vs 2% DMSO control, read-out: Compound Concentration (ppm) for ≥90% inhibition, Fm): 10 µg/mL (≈ 17.6 µM); IC90 ([2]; concentration sufficient to ≥90% inhibition of growth, 48 hours vs 2% DMSO control, read-out: Compound Concentration (ppm) for ≥90% inhibition, Bc): 50 µg/mL (≈ 87.9 µM); IC90 ([3]; concentration sufficient to ≥90% inhibition of growth, 48 hours vs 2% DMSO control, read-out: Compound Concentration (ppm) for ≥90% inhibition, Fv): > 50 µg/mL; IC90 ([4]; concentration sufficient to ≥90% inhibition of growth, 48 hours vs 2% DMSO control, read-out: Compound Concentration (ppm) for ≥90% inhibition, Dm): > 50 µg/mL; IC90 ([5]; concentration sufficient to ≥90% inhibition of growth, 48 hours vs 2% DMSO control, read-out: Compound Concentration (ppm) for ≥90% inhibition, Pc): > 50 µg/mL; IC90 ([6]; concentration sufficient to ≥90% inhibition of growth, 48 hours vs 2% DMSO control, read-out: Compound Concentration (ppm) for ≥90% inhibition, Cg): > 50 µg/mL; IC90 ([7]; concentration sufficient to ≥90% inhibition of growth, 48 hours vs 2% DMSO control, read-out: Compound Concentration (ppm) for ≥90% inhibition, St): > 50 µg/mL; IC90 ([8]; concentration sufficient to ≥90% inhibition of growth, 48 hours vs 2% DMSO control, read-out: Compound Concentration (ppm) for ≥90% inhibition, Rs): > 50 µg/mL
CCOC(=O)c1sc2c(c1C)c(=O)n(C(C)(C)C(=O)NC(C)C)c(=O)n2C[C@H](OCC(C)(C)C#N)c1cc(F)ccc1OC [Compound I-321] |  |  |  |  |  |  |  |  | 0.08 µg/mL (≈ 0.127 µM) | 0.4 µg/mL (≈ 0.634 µM) | 0.4 µg/mL (≈ 0.634 µM) | ≥ 0.4 µg/mL | > 50 µg/mL | 0.4 µg/mL (≈ 0.634 µM) | > 50 µg/mL | 2 µg/mL (≈ 3.17 µM) | 

Source: patent publication US10941157B2, “Pesticidal compositions and uses thereof” (Gilead Apollo, LLC, priority 2015, dated 2021)
